Molecules are shown by their SMILES.

Data set [1] deals with T1, c-Met (cytoplasmic domain) (Homo sapiens, UniProt P08581).
T1 construct: Reactions were initiated with 30 ng/mL c-Met (cytoplasmic domain, Invitrogen Corporation #PV3143); purchased Invitrogen Corporation PV3143
Description: c-Met Kinase Assay (ELISA/TRF, PLC-γ substrate). The class given is biochemical. To be noted: 3 μM ATP (Km level); read-out: c-Met Kinase Inhibition (IC50). In a few lines: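 c-Met cytoplasmic domain (30 ng/mL) phosphorylates plate-coated GST–PLC-γ for 15 min at 37 °C. Phosphotyrosine detected with Eu-labeled PT66 antibody by time-resolved fluorescence. IC50 from variable-slope sigmoidal fit of % inhibition vs log concentration.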
(In general: ELISA stands for enzyme-linked immunosorbent assay.)

Data set [2] has as its target T2, c-Met (phospho-c-Met) in A549 cells (Homo sapiens, UniProt P08581).
T2 construct: endogenous in cells; host or cells: HT29, A549 (HGF-stimulated), GTL-16
The experiment in a line: c-Met Cellular Activity/Autophosphorylation Assay, A549 cells (HGF stimulated). Format: cell-based. To be noted: 50 ng/mL HGF; for inhibition at 1 µM: 1 μM compound, read-out: c-Met autophosphorylation inhibition score, A549 Cells (1 μM); for inhibition at 3 µM: 3 μM compound, read-out: c-Met autophosphorylation inhibition score, A549 Cells (3 μM). The procedure: (§1) HT29 and GTL-16 cells were serum starved for one hour in media containing 0.05% BSA and varying concentrations of Example compounds (1-10 μM). A549 cells were serum starved overnight in media containing 0.05% BSA then treated for one hour with Example compounds followed by a 15 minute stimulation with 50 ng/mL HGF (Peprotech, Rocky Hill, N.J.), respectively. Samples were resolved by electrophoresis on a 3-8% Tris-Acetate gel (40 ma/gel) and then transferred to a nitrocellulose membrane. Membranes were blocked for one hour at room temperature in Odyssey Blocking Buffer (Licor #927-40000) diluted 1:1 with 1×TBS. Membranes were then co-incubated overnight at 4° C. with primary antibodies [total Met (Cell Signaling, #3127) and Phospho-Met (Biosource, #44-888G) 1:1000 each in Odyssey Blocking Buffer diluted 1:1 with 1×TBS-T 0.05%]. The next day, membranes were washed and co-incubated with secondary antibodies [Goat anti mouse IRDye800 (Rockland, #610-132-121) and Goat anti rabbit Alexa fluor 700 (Molecular Probes, #A21038) 1:10,000] in Odyssey Blocking Buffer diluted 1:1 with 1×TBS-T 0.05% for one hour at room temperature protected from light. Blots were then washed and read on the Odyssey Infrared Imager. Total c-Met signal was visualized at 800 nm detection and phospho-c-Met signal was visualized at 700 nm detection.

Data set [3] deals with T3, c-Met (phospho-c-Met) in HT29 cells (Homo sapiens, UniProt P08581).
T3 construct: endogenous in cells; host or cells: HT29, A549 (HGF-stimulated), GTL-16
The experiment in a line: c-Met Cellular Activity/Autophosphorylation Assay, HT29 cells. To be noted: for inhibition at 1 µM: HT-29, 1 μM compound, read-out: c-Met autophosphorylation inhibition score, HT29 Cells (1 μM); for inhibition at 3 µM: HT-29, 3 μM compound, read-out: c-Met autophosphorylation inhibition score, HT29 Cells (3 μM). Format: cell-based. How it is done: as §1

In data set [4] the target is baculovirus-expressed ALK (Homo sapiens, UniProt Q9UM73). Description: ALK Kinase Assay (ELISA/TRF, PLC-γ substrate). Note: 1 µM ATP (Km level). To be noted: read-out: ALK Kinase Inhibition (IC50). The class given is biochemical. The gist of the method:
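GST-PLC-γ coat 10 μg/mL/TBS; 30 ng/ml ALK, 37° C, 15 min; Eu-PT66 anti-pTyr 1 h 37° C, enhancement, TRF. IC50: % inhib vs log10[cpd], variable-slope sigmoid.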

The target in a further data set is T4, NPM-ALK (Homo sapiens, UniProt Q9UM73).
T4 construct: a fusion protein consisting of nucleophosmin (NMP) and the intracellular domain of ALK; the other entry of the earlier key: NPM1 (P06748, Nucleophosmin)
Description: ALK Cellular Assay (phospho-NPM-ALK immunoblot / ALK tyrosine phosphorylation ELISA). Format: cell-based. The procedure:
Immunoblotting of phospho-NPM-ALK and total NPM-ALK from cell lysates was carried out according to the protocols provided by the antibody suppliers. In brief, after treatment of Example compounds, cells were lysed in Frak lysis buffer [10 mM Tris, pH 7.5, 1% Triton X-100, 50 mM sodium chloride, 20 mM sodium fluoride, 2 mM sodium pyrophosphate, 0.1% BSA, plus freshly prepared 1 mM activated sodium vanadate, 1 mM dithiothreitol (#165680050, ARCOS Organics, Geel, Belgium), and 1 mM PMSF (#837091, Boehringer Mannheim Biochemicals, Indianapolis, Ind.), protease inhibitors cocktail III (#539134-1Set, Calbiochem, 1:100 dilution)]. After brief sonication, the lysates were cleared by centrifugation, mixed with sample buffer and subjected to SDS-PAGE. Following transfer to membranes, the membranes were blotted with either rabbit phospho-NPM-ALK(Y664) (Cat^#3341) or ALK antibody (Cat^#3342) from Cell Signaling Technology (Beverly, Mass.), and then the HRP-conjugated goat anti-rabbit antibodies (Santa Cruz, Calif.) after washed in TBS/0.2% Tween-20. The protein bands were visualized with ECL Western Blotting detection reagents (RPN2106, Amersham Biosciences, Buckinghamshire, UK) and quantitated with gel-pro analyzer 3.1 software.
To measure ALK tyrosine phosphorylation in cells with an ELISA assay, fluoronunc plates (Cat^#437796, Nalge Nunc, Rochester, N.Y.) were pre-coated with goat anti-mouse IgG, and incubated with the capture mouse ALK antibody (Cat^#35-4300, Zymed, Seattle, Wash.) diluted 1:1000 in Superblock (Pierce, Rockford, Ill.). Following blocking, cell lysates were added to plates and incubated overnight at 4° C. Plates were incubated with the detecting antibody, anti-phospho-ALK (Y664) (Cell Signaling Technology), diluted at 1:2000, followed by incubation with goat anti-rabbit-IgG alkaline phosphatase to amplify the detection. Wells were exposed to the fluorogenic substrate 4-MeUP (#3368-04-5, Calbiochem) and the signal quantified using a CytoFluor® (series 4000) Fluorescence Multi-Well Plate Reader (Applied Biosystems, Foster City, Calif.).
On the technique in general: Immunoblotting shows a protein as a band on a membrane.

T4 sequence (Q9UM73 with tags, fused parts or gaps): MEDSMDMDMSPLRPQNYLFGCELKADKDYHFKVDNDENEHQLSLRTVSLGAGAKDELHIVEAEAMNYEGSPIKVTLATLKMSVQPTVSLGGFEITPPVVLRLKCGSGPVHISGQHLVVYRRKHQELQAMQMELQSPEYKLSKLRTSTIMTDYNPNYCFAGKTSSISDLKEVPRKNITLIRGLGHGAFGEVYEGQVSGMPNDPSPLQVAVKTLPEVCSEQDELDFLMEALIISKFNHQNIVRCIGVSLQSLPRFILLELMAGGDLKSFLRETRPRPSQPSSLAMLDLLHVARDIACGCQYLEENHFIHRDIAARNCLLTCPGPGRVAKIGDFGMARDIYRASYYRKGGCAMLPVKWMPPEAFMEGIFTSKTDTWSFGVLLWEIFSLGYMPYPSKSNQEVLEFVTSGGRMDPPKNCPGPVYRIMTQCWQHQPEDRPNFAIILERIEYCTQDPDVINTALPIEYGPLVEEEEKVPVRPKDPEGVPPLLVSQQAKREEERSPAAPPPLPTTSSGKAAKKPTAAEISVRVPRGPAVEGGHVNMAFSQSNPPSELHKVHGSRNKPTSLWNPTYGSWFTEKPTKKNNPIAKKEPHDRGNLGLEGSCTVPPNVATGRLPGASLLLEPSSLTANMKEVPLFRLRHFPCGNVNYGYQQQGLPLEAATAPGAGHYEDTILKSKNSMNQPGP
T1 sequence (P08581 956-1390 limits assumed): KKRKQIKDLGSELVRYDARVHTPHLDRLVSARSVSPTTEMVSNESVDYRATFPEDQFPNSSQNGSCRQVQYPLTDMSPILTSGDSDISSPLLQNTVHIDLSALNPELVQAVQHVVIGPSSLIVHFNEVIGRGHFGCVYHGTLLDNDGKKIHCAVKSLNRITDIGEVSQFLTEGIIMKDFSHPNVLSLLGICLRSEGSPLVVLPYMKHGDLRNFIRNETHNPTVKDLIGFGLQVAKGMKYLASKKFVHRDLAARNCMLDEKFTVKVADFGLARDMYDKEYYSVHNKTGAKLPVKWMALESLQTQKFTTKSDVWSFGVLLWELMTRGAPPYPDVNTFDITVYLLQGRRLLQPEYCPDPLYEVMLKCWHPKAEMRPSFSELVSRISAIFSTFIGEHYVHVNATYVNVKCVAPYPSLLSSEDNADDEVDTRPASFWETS
baculovirus-expressed ALK, sequence (Q9UM73 19-1620): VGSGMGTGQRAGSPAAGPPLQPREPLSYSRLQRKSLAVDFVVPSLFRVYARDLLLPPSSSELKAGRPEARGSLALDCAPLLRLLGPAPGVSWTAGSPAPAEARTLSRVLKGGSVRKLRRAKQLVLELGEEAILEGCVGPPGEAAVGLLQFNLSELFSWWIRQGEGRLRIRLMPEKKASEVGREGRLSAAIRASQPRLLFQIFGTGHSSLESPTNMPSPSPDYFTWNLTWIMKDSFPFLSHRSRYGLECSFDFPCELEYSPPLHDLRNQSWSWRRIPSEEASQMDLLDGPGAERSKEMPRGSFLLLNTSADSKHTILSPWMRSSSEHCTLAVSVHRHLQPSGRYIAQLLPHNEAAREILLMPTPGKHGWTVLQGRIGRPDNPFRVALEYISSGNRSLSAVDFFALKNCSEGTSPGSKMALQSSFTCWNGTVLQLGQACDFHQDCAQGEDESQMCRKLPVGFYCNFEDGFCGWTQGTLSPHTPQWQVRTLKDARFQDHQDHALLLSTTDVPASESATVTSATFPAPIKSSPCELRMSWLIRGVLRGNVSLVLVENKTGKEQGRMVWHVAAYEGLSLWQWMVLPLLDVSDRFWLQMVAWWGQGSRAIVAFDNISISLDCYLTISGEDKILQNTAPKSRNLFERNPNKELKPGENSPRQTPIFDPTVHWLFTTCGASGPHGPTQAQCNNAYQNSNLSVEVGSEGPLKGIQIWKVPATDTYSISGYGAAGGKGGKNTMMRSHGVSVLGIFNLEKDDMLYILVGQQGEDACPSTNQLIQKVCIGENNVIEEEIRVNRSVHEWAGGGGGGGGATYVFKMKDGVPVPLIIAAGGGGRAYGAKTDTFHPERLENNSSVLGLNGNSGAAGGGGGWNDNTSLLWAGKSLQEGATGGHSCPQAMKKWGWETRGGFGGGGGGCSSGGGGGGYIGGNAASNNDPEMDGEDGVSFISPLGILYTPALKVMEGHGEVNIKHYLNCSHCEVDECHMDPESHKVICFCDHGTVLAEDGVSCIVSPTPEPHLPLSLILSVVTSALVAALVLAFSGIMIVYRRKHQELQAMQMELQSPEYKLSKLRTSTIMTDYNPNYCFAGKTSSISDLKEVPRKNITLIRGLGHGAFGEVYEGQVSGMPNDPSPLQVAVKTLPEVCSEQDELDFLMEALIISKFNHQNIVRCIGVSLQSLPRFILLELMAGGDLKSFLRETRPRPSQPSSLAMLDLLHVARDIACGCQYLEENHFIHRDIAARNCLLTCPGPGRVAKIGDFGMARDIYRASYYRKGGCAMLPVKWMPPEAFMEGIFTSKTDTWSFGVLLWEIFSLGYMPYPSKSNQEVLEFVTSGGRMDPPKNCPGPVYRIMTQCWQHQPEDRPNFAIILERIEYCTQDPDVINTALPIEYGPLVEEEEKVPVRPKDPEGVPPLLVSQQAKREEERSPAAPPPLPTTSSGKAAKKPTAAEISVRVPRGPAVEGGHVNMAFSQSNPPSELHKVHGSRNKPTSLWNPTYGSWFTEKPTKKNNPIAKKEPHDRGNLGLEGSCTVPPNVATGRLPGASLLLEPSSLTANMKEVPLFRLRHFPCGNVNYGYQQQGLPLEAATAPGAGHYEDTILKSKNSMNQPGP
T3 sequence (P08581 25-1390): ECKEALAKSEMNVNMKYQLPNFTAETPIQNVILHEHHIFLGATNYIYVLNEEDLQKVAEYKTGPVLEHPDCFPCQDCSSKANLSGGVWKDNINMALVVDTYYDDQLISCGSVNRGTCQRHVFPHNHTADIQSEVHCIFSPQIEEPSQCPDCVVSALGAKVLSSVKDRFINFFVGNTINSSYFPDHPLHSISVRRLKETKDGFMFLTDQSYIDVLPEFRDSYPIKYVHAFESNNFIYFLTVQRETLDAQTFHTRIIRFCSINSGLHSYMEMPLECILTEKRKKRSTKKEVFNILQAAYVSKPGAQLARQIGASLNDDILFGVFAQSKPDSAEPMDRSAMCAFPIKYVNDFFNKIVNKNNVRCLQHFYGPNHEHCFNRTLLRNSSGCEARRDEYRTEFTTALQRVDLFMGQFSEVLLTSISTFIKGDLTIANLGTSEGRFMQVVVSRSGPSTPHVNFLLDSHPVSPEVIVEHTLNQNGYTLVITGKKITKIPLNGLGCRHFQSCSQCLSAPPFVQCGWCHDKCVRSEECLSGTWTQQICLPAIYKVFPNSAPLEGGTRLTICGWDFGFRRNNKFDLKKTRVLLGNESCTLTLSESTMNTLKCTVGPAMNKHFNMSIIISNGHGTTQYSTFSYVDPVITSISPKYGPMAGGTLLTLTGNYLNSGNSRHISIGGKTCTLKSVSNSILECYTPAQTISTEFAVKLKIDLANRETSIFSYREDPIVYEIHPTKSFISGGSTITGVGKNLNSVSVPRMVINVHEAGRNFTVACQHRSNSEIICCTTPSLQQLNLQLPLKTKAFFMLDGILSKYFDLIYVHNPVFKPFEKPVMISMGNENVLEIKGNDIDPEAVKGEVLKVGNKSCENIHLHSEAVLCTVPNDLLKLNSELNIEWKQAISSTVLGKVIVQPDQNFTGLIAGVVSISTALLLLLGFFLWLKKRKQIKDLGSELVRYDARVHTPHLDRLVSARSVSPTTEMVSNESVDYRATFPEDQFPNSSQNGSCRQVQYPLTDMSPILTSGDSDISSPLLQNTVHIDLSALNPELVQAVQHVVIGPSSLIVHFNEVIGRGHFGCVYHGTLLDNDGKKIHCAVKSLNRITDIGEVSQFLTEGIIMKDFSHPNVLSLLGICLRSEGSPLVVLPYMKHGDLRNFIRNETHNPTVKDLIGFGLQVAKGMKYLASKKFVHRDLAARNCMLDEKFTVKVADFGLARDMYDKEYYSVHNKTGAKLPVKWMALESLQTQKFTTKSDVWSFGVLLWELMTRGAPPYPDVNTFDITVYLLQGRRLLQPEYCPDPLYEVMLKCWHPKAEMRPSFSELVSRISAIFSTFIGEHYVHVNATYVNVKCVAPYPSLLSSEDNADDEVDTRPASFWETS

As usually defined, the IC50 is the concentration that inhibits the measured activity by half. For orientation: inhibition means the share of the control response that was lost under treatment. The term melting point denotes the temperature, or range, at which the solid turns liquid. In turn, `CN1CCN(c2ccc(-c3cnc4c(c3)N(Cc3cc(F)ccc3F)CCN4)cn2)CC1` [Example 69, 1-(2,5-Difluorobenzyl)-7-[6-(4-methylpiperazin-1-yl)pyridin-3-yl]-1,2,3,4-tetrahydropyrido[2,3-b]pyrazine] yielded a melting point of 192 to 193 °C. Besides, the half-maximal inhibitory concentration (IC50) in data set [1] lay within 1000 to 10000 nM. In addition, in data set [2], the inhibition at 1 µM was 0 to 25% and the inhibition at 3 µM lay within 0 to 25%. In data set [3], the inhibition at 1 µM was in the range of 0 to 25% and the inhibition at 3 µM lay within 0 to 25%. Besides, the IC50 in data set [4] is less than 100 nM. The IC50 against NPM-ALK lay in the range of 751 to 1000 nM.
On to `O=C(c1ccc(-c2cnc3c(c2)N(Cc2c(F)ccc(F)c2Cl)CCN3)cc1)N1CCC[C@H]1CN1CCCC1` [Example 100, {4-[1-(2-Chloro-3,6-difluorobenzyl)-1,2,3,4-tetrahydropyrido[2,3-b]pyrazin-7-yl]phenyl}-((S)-2-((pyrrolidin-1-yl)methyl)pyrrolidin-1-yl)methanone], for which the IC50 in data set [1] was 100 to 1000 nM; in data set [4], less than 100 nM; against NPM-ALK, not above 250 nM. Also, the inhibition at 1 µM in data set [2] and in data set [3] was 0 to 25% in each case. Besides, the inhibition at 3 µM in data set [2] and in data set [3] was 0 to 25% in each case.
`CN1CCN(c2cc(-c3cnc4c(c3)N(Cc3c(F)ccc(F)c3Cl)CCN4)ccn2)CC1` [Example 190, 1-(2-Chloro-3,6-difluorobenzyl)-7-[2-(4-methylpiperazin-1-yl)pyridin-4-yl]-1,2,3,4-tetrahydropyrido[2,3-b]pyrazine]: the IC50 is 100 to 1000 nM in data set [1], less than 100 nM in data set [4] and 501 to 750 nM against NPM-ALK. Besides, in data set [2], the inhibition at 1 µM was in the range of 0 to 25%. Besides, the inhibition at 3 µM in data set [2] was in the range of 0 to 25%.
For the compound `O=C(c1ccc(-c2cnc3c(c2)N(Cc2cc(Cl)ccc2Cl)CCN3)cc1)N1CCC[C@H]1CN1CCCC1` [Example 159, S-{4-[1-(2,5-Dichlorobenzyl)-1,2,3,4-tetrahydropyrido[2,3-b]pyrazin-7-yl]phenyl}-{2-[(pyrrolidin-1-yl)methyl]pyrrolidin-1-yl}methanone], the IC50 was 1000 to 10000 nM in data set [1], less than 100 nM in data set [4] and 251 to 500 nM at NPM-ALK. The inhibition at 1 µM in data set [2] and in data set [3] was 0 to 25% each time. Also, the inhibition at 3 µM in data set [2] and in data set [3] was 0 to 25% in each case.
With `O=C(c1ccc(-c2cnc3c(c2)N(Cc2cc(Cl)ccc2Cl)CCN3)cc1)N1CCC(N2CCCC2)CC1` [Example 160, {4-[1-(2,5-Dichlorobenzyl)-1,2,3,4-tetrahydropyrido[2,3-b]pyrazin-7-yl]phenyl}-(4-(pyrrolidin-1-yl)piperidin-1-yl)methanone], the IC50 in data set [1] was 100 to 1000 nM; in data set [4], less than 100 nM; at NPM-ALK, not above 250 nM. For the same compound, the inhibition at 1 µM lay in the range of 0 to 25% in data set [2] and 26 to 50% in data set [3]. Also, the results for the inhibition at 3 µM in data set [2] and in data set [3] were 0 to 25% and 26 to 50%, respectively.
As for `O=C(c1ccc(-c2cnc3c(c2)N(Cc2c(Cl)cccc2Cl)CCN3)cc1)N1CCC(N2CCCC2)CC1` [Example 163, {4-[1-(2,6-Dichlorobenzyl)-1,2,3,4-tetrahydropyrido[2,3-b]pyrazin-7-yl]phenyl}-(4-(pyrrolidin-1-yl)piperidin-1-yl)methanone], the IC50 in data set [1] was 100 to 1000 nM; in data set [4] it was less than 100 nM; on NPM-ALK it was 751 to 1000 nM. Moreover, the inhibition at 1 µM in data set [2] and in data set [3] was 0 to 25% each time. Moreover, the inhibition at 3 µM fell in the range of 0 to 25% in data set [2] and 26 to 50% in data set [3].
For `O=C(c1ccc(-c2cnc3c(c2)N(Cc2c(Cl)cccc2Cl)CCN3)cc1)N1CCC[C@H]1CN1CCCC1` [Example 164, {4-[1-(2,6-Dichlorobenzyl)-1,2,3,4-tetrahydropyrido[2,3-b]pyrazin-7-yl]phenyl}-{2-[(pyrrolidin-1-yl)methyl]pyrrolidin-1-yl}methanone], the IC50 was 1000 to 10000 nM in data set [1], less than 100 nM in data set [4] and 251 to 500 nM against NPM-ALK. The inhibition at 1 µM in data set [2] and in data set [3] was 0 to 25% in each case. Moreover, the inhibition at 3 µM in data set [2] and in data set [3] was 0 to 25% throughout.
In turn, `O=C(c1ccc(-c2cnc3c(c2)N(Cc2c(F)ccc(F)c2Cl)CCN3)cc1)N1CCC(N2CCCC2)CC1` [Example 99, {4-[1-(2-Chloro-3,6-difluorobenzyl)-1,2,3,4-tetrahydropyrido[2,3-b]pyrazin-7-yl]phenyl}-(4-(pyrrolidin-1-yl)piperidin-1-yl)methanone] showed a melting point of 93 to 95 °C. Moreover, the concentration for half-maximal inhibition (IC50) in data set [1] lay within 100 to 1000 nM. In data set [2], the inhibition at 1 µM fell in the range of 0 to 25% and the inhibition at 3 µM was in the range of 0 to 25%. In data set [3], the inhibition at 1 µM lay in the range of 0 to 25% and the inhibition at 3 µM fell in the range of 0 to 25%. The IC50 in data set [4] was less than 100 nM. Also, the IC50 against NPM-ALK was not above 250 nM.
In the case of `CC(c1c(F)ccc(F)c1Cl)N1CCNc2ncc(-c3ccc(N4CCN(C)CC4)nc3)cc21` (centres unmarked) [Example 177, 1-[1-(2-Chloro-3,6-difluorophenyl)ethyl]-7-[6-(4-methylpiperazin-1-yl)pyridin-3-yl]-1,2,3,4-tetrahydropyrido[2,3-b]pyrazine], the IC50 was 1000 to 10000 nM in data set [1], less than 100 nM in data set [4] and 251 to 500 nM against NPM-ALK. In addition, the inhibition at 1 µM in data set [2] is 0 to 25%; in data set [3] it was 26 to 50%. Further, the inhibition at 3 µM in data set [2] lay within 0 to 25%; in data set [3], 26 to 50%.
In turn, `O=C1CNc2ncc(-c3ccc(C(=O)N4CCC[C@H]4CN4CCCC4)cc3)cc2N1Cc1cc(Cl)ccc1Cl` [Example 157, S-1-(2,5-Dichlorobenzyl)-7-[4-(2-[(pyrrolidin-1-yl)methyl]pyrrolidine-1-carbonyl)phenyl]-3,4-dihydro-1H-pyrido[2,3-b]pyrazin-2-one] gave a melting point of 180 °C. Besides, the IC50 in data set [1] fell in the range of 100 to 1000 nM. Also, in data set [2], the inhibition at 1 µM lay within 0 to 25% and the inhibition at 3 µM lay within 0 to 25%. Moreover, in data set [3], the inhibition at 1 µM was in the range of 0 to 25% and the inhibition at 3 µM fell in the range of 26 to 50%. The IC50 in data set [4] was less than 100 nM. Also, at NPM-ALK, the IC50 lay in the range of 251 to 500 nM.

The values above are taken from patent publication US7601716B2, “Pyridopyrazines and derivatives thereof as ALK and c-Met inhibitors” (Cephalon, Inc., priority 2006, dated 2009).
